# Assay results as given in PubChem BioAssay AID2060606 (Molecular Pharmacology Branch, DTP, NCI, 2025).
# System: 922993-354-T-J3-PDC complex spheroids, viability, % test/control
# Assay: Anticancer human tumor 922993-354-T-J3-PDC patient-derived endometrial carcinoma cell line growth inhibition [CLK]
# Conditions: for IC50: curve of first compound; for viability, T/C: stronger effect = lower value
# Outline: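 Patient-derived tumor cells grown as complex spheroids with HUVEC endothelial cells and mesenchymal stem cells, treated with drug combinations. Concentrations descend in half-log steps from near clinical Cmax, or from 10 microM if Cmax unknown.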
# 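Further: spheroids exposed to the agents for 7 days before readout.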
compound,measurement,setting,value
NC(=O)C(=Cn1cnc(-c2cc(C(F)(F)F)cc(C(F)(F)F)c2)n1)c1cncnc1 + CNC(=O)c1ccc(Nc2nc(OC3CCCC3)c3c(-c4ccc5nc(C)oc5c4)c[nH]c3n2)c(OC)c1,IC50,second compound 0.0316 µM,583 nM
same,IC50,second compound 0.1 µM,467 nM
same,IC50,second compound 0.316 µM,205 nM
same,IC50,second compound 1 µM,48.6 nM
same,IC50,second compound 3.16 µM,44.6 nM
same,IC50,second compound 10 µM,36.4 nM
same,"viability, T/C","second compound 0.0316 µM, first compound 0.00949 µM",120%
same,"viability, T/C","second compound 0.0316 µM, first compound 0.03 µM",123%
same,"viability, T/C","second compound 0.0316 µM, first compound 0.0949 µM",98.3%
same,"viability, T/C","second compound 0.0316 µM, first compound 0.3 µM",57.7%
same,"viability, T/C","second compound 0.0316 µM, first compound 0.949 µM",50.4%
same,"viability, T/C","second compound 0.0316 µM, first compound 3 µM",34.6%
same,"viability, T/C","second compound 0.1 µM, first compound 0.00949 µM",107%
same,"viability, T/C","second compound 0.1 µM, first compound 0.03 µM",120%
same,"viability, T/C","second compound 0.1 µM, first compound 0.0949 µM",102%
same,"viability, T/C","second compound 0.1 µM, first compound 0.3 µM",54%
same,"viability, T/C","second compound 0.1 µM, first compound 0.949 µM",49.4%
same,"viability, T/C","second compound 0.1 µM, first compound 3 µM",36.7%
same,"viability, T/C","second compound 0.316 µM, first compound 0.00949 µM",81.1%
same,"viability, T/C","second compound 0.316 µM, first compound 0.03 µM",99%
same,"viability, T/C","second compound 0.316 µM, first compound 0.0949 µM",71%
same,"viability, T/C","second compound 0.316 µM, first compound 0.3 µM",37.3%
same,"viability, T/C","second compound 0.316 µM, first compound 0.949 µM",41.7%
same,"viability, T/C","second compound 0.316 µM, first compound 3 µM",40.2%
same,"viability, T/C","second compound 1 µM, first compound 0.00949 µM",56.8%
same,"viability, T/C","second compound 1 µM, first compound 0.03 µM",63.2%
same,"viability, T/C","second compound 1 µM, first compound 0.0949 µM",36.2%
same,"viability, T/C","second compound 1 µM, first compound 0.3 µM",18%
same,"viability, T/C","second compound 1 µM, first compound 0.949 µM",29%
same,"viability, T/C","second compound 1 µM, first compound 3 µM",22.2%
same,"viability, T/C","second compound 3.16 µM, first compound 0.00949 µM",58.8%
same,"viability, T/C","second compound 3.16 µM, first compound 0.03 µM",67.8%
same,"viability, T/C","second compound 3.16 µM, first compound 0.0949 µM",24.5%
same,"viability, T/C","second compound 3.16 µM, first compound 0.3 µM",12.4%
same,"viability, T/C","second compound 3.16 µM, first compound 0.949 µM",18.9%
same,"viability, T/C","second compound 3.16 µM, first compound 3 µM",6.38%
same,"viability, T/C","second compound 10 µM, first compound 0.00949 µM",46.6%
same,"viability, T/C","second compound 10 µM, first compound 0.03 µM",65.3%
same,"viability, T/C","second compound 10 µM, first compound 0.0949 µM",20.4%
same,"viability, T/C","second compound 10 µM, first compound 0.3 µM",8.4%
same,"viability, T/C","second compound 10 µM, first compound 0.949 µM",11.9%
same,"viability, T/C","second compound 10 µM, first compound 3 µM",3.1%
Nc1ccccc1NC(=O)c1ccc(CNC(=O)OCc2cccnc2)cc1 + CNC(=O)c1ccc(Nc2nc(OC3CCCC3)c3c(-c4ccc5nc(C)oc5c4)c[nH]c3n2)c(OC)c1,IC50,second compound 0.0316 µM,> 10000 nM
same,IC50,second compound 0.1 µM,6250 nM
same,IC50,second compound 0.316 µM,2290 nM
same,IC50,second compound 1 µM,< 31.6 nM
same,IC50,second compound 3.16 µM,< 31.6 nM
same,IC50,second compound 10 µM,< 31.6 nM
same,"viability, T/C","second compound 0.0316 µM, first compound 0.0316 µM",106%
same,"viability, T/C","second compound 0.0316 µM, first compound 0.1 µM",99.7%
same,"viability, T/C","second compound 0.0316 µM, first compound 0.316 µM",93.3%
same,"viability, T/C","second compound 0.0316 µM, first compound 1 µM",86.6%
same,"viability, T/C","second compound 0.0316 µM, first compound 3.16 µM",65.1%
same,"viability, T/C","second compound 0.0316 µM, first compound 10 µM",52.1%
same,"viability, T/C","second compound 0.1 µM, first compound 0.0316 µM",106%
same,"viability, T/C","second compound 0.1 µM, first compound 0.1 µM",93.8%
same,"viability, T/C","second compound 0.1 µM, first compound 0.316 µM",97.7%
same,"viability, T/C","second compound 0.1 µM, first compound 1 µM",77.4%
same,"viability, T/C","second compound 0.1 µM, first compound 3.16 µM",58.4%
same,"viability, T/C","second compound 0.1 µM, first compound 10 µM",44.4%
same,"viability, T/C","second compound 0.316 µM, first compound 0.0316 µM",59.1%
same,"viability, T/C","second compound 0.316 µM, first compound 0.1 µM",50%
same,"viability, T/C","second compound 0.316 µM, first compound 0.316 µM",57.9%
same,"viability, T/C","second compound 0.316 µM, first compound 1 µM",51.9%
same,"viability, T/C","second compound 0.316 µM, first compound 3.16 µM",49.3%
same,"viability, T/C","second compound 0.316 µM, first compound 10 µM",34.4%
same,"viability, T/C","second compound 1 µM, first compound 0.0316 µM",37.6%
same,"viability, T/C","second compound 1 µM, first compound 0.1 µM",37%
same,"viability, T/C","second compound 1 µM, first compound 0.316 µM",31.9%
same,"viability, T/C","second compound 1 µM, first compound 1 µM",34.4%
same,"viability, T/C","second compound 1 µM, first compound 3.16 µM",31.9%
same,"viability, T/C","second compound 1 µM, first compound 10 µM",8.75%
same,"viability, T/C","second compound 3.16 µM, first compound 0.0316 µM",29%
same,"viability, T/C","second compound 3.16 µM, first compound 0.1 µM",30.7%
same,"viability, T/C","second compound 3.16 µM, first compound 0.316 µM",27.9%
same,"viability, T/C","second compound 3.16 µM, first compound 1 µM",31.5%
same,"viability, T/C","second compound 3.16 µM, first compound 3.16 µM",24.8%
same,"viability, T/C","second compound 3.16 µM, first compound 10 µM",6.59%
same,"viability, T/C","second compound 10 µM, first compound 0.0316 µM",28.8%
same,"viability, T/C","second compound 10 µM, first compound 0.1 µM",24.2%
same,"viability, T/C","second compound 10 µM, first compound 0.316 µM",24.8%
same,"viability, T/C","second compound 10 µM, first compound 1 µM",30.1%
same,"viability, T/C","second compound 10 µM, first compound 3.16 µM",17.2%
same,"viability, T/C","second compound 10 µM, first compound 10 µM",5.11%
